Data: publication PMC8568133, “Evaluation of bisphenylthiazoles as a promising class for combating multidrug-resistant fungal infections” (PLoS ONE, 2021)
Where two headings read alike, the source gives them in different places.

Assays:
[1] = tested on: human colorectal cells (Caco-2); experiment: In vitro cytotoxicity, MTS assay; settings: human, 24 h
Procedure: (§1) Fig 2 In vitro cytotoxicity assay of bisphenylthiazole compounds 7, 16 and 17 (tested in triplicates at 32, 64 and 128 μg/mL) against: A) human colorectal cells (Caco-2), and B) monkey kidney epithelial cells (Vero) after 24-hours exposure time, using the MTS 3-(4,5-dimethylthiazol-2-yl)-5-(3-carboxymethoxyphenyl)-2-(4-sulfophenyl)-2H-tetrazolium) assay. The data represent the percentage of viable Caco-2 or Vero cells measured as the average absorbance relative to DMSO after exposure to the tested compounds. Dimethyl sulfoxide (DMSO) was used as a negative control. Error bars represent the standard deviation values.
(§2) To explore the tolerability of bisphenylthiazoles, their cytotoxicity profile was assessed in human colorectal adenocarcinoma (Caco-2) and monkey kidney epithelial cells (Vero) as described earlier. Briefly, compounds were incubated with the cells for 24 hours. Then, cells were incubated with MTS reagent for 3 hours before measuring the absorbance values (OD490). The experiment was repeated in two independent times.

[2] = tested on: monkey kidney epithelial cells (Vero); experiment: In vitro cytotoxicity, MTS assay; settings: Vero, 24 h exposure, MTS
Procedure: as §1, §2

[3] = tested on: MRSA USA300; experiment: Broth microdilution MIC, initial antibacterial screening; format: cell-based, S. aureus; settings: Staphylococcus aureus; MRSA USA300; read-out: MIC
Procedure: (§3) The minimum inhibitory concentrations (MICs) of the tested compounds and control drugs against clinically-relevant bacterial strains were determined using the broth microdilution method, according to guidelines outlined by the Clinical and Laboratory Standards Institute (CLSI), or as described previously.
(§4) Initial screening of the bisphenylthiazoles against Gram-positive and Gram-negative bacteria. Bacterial strains, (except C. difficile that was grown anaerobically on brain heart infusion supplemented agar at 37° C for 48 hours), were grown aerobically overnight on tryptone soy agar plates at 37° C. Afterwards, a bacterial solution equivalent to 0.5 McFarland standard was prepared and diluted in cation-adjusted Mueller-Hinton broth (CAMHB) (for S. aureus, and E. coli) to achieve a bacterial concentration of about 5 × 10^5 CFU/mL. C. difficile was diluted in brain heart infusion supplemented broth, supplemented with yeast extract, hemin and vitamin K to achieve a bacterial concentration of about 5 × 10^5 CFU/mL. Compounds and control drugs were added in the first row of the 96 -well plates, and serially diluted with the corresponding media containing bacteria. Plates were then, incubated aerobi cally at 37° C for 18-20 hours (for S. aureus and E. coli). C. difficile was incubated anaerobically at 37° C for 48 hours. […]
(§5) the visual growth of bacteria.

[4] = tested on: E. coli BW25113 (wild-type); experiment: as above; format: cell-based, Escherichia coli; settings: Escherichia coli, read-out: MIC
Procedure: as §3, §4, §5

[5] = tested on: Aspergillus fumigatus; experiment: Antifungal broth microdilution MIC (50% growth inhibition); format: cell-based; settings: Aspergillus fumigatus, read-out: MIC
Outline: (§6)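 MICs came from CLSI broth microdilution against clinical isolates, scored as 50% inhibition at 35 °C after 24 h (Candida) or 48 h (Cryptococcus). MFC is the lowest concentration cutting growth by 99.9% on YPD agar.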

[6] = tested on: Candida parapsilosis; experiment: as above; format: cell-based; settings: Lodderomyces parapsilosis, read-out: MIC
Outline: as §6

[7] = tested on: Cryptococcus neoformans; experiment: Antifungal broth microdilution MIC (50% growth inhibition, 48 h); format: cell-based; settings: Cryptococcus neoformans, read-out: MIC
Procedure: (§7) Serial dilutions (from 128 μg/mL to 0.06 μg/mL) of the tested compounds and control drugs (fluconazole, itraconazole and amphotericin) (in triplicates), were screened against clinical isolates of Candida albicans, Candida auris, Candida glabrata, Candida parapsilosis, Candida tropicalis, Candida krusei, Cryptococcus neoformans, Cryptococcus gattii and Aspergillus fumigatus species using the broth microdilution method according to the Clinical and Laboratory Standards Institute guidelines. MICs were determined as the lowest concentration of the compounds that inhibited the fungal growth by 50% after incubation at 35 °C for 24 h (for Candida and Aspergillus), or 48 h (for Cryptococcus). The minimum fungicidal concentration (MFC) of these compounds was tested by plating 4 μL from wells with no growth onto YPD agar plates. The plates were incubated at 37 °C for 24 hours before recording the MFC, which was categorized as the lowest concentration that reduced fungal growth by 99.9% [45]. The experiment was repeated three independent times.

[8] = tested on: Cryptococcus gattii; experiment: as above; format: cell-based; settings: Cryptococcus gattii, read-out: MIC
Procedure: as §7

[9] = tested on: E. coli JW55031 (tolC-mutant); experiment: microbe, parasite or virus in culture; format: cell-based, Escherichia coli; settings: Escherichia coli
Procedure: as §3, §4, §5

[10] = tested on: Lactobacillus gasseri HM-400; experiment: Broth microdilution MIC against normal human microbiota; format: cell-based; settings: HM400; Lactobacillus gasseri HM-400; read-out: MIC
Procedure: (§8) Broth microdilution was utilized to determine the activity of bisphenylthiazoles against the human gut microflora as described elsewhere. A bacterial solution equivalent to 0.5 McFarland standards was prepared and diluted in MRS broth to achieve a bacterial concentration of approximately 5 x 10^5 CFU/mL. Then, compounds/control antifungals (in triplicates), were added to the plates and serially diluted with media containing bacteria. The plates were incubated for 48 hours at 37 °C before recording the MIC values. The experiment was repeated three independent times.

[11] = tested on: Lactobacillus casei ATCC-334; experiment: as above; format: cell-based; settings: Lacticaseibacillus casei, ATCC334; Lactobacillus casei ATCC-334; read-out: MIC
Procedure: as §8

[12] = tested on: Lactobacillus crispatus HM-370; experiment: as above; format: cell-based; settings: HM370; Lactobacillus crispatus HM-370; read-out: MIC
Procedure: as §8

[13] = tested on: Candida tropicalis; experiment: Antifungal broth microdilution MIC (50% growth inhibition) and MFC; format: cell-based; settings: Candida tropicalis, ATCC1369; C. tropicalis ATCC 1369; read-out: MIC
Outline: (§9)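 CLSI broth microdilution, clinical isolates, 128–0.06 μg/mL serial dilutions, triplicates. MFC: no-growth wells plated on YPD agar, 37 °C 24 h, 99.9% kill. Three independent repeats.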

[14] = tested on: Candida auris; experiment: as above; format: cell-based; settings: Candidozyma auris, read-out: MIC
Outline: as §6

[15] = tested on: Candida glabrata; experiment: as above; format: cell-based; settings: Nakaseomyces glabratus, read-out: MIC
Outline: as §9

[16] = tested on: Candida krusei; experiment: as above; format: cell-based; settings: Pichia kudriavzevii, read-out: MIC
Outline: as §9

[17] = tested on: Candida albicans; experiment: as above; format: cell-based; settings: Candida albicans, read-out: MIC
Outline: as §6

[18] = tested on: C. difficile ATCC BAA1870; experiment: Broth microdilution MIC, initial antibacterial screening (anaerobic); format: cell-based, Clostridioides difficile; settings: Clostridioides difficile, ATCCBAA1870, read-out: MIC
Procedure: as §3, §4, §5

[19] = GSH trap (reactive metabolite); format: in vitro ADME; settings: reactive metabolite formation

Cc1nc(-c2ccc(-c3ccccc3)cc2)sc1-c1nnc(NCCN)o1 [Compound 7, N-{5-[2-((1,1’-Biphenyl)-4-yl)-4-methylthiazol-5-yl]-1,3,4-oxadiazol-2-yl}ethane-1,2-diamine]
-ve: GSH trap [19]
1 µg/mL: MIC ([15]; C. glabrata ATCC MYA-2950)
145 to 146 °C: melting point
> 128 µg/mL: MIC [11] | MIC [12]
32 µg/mL: MIC [3]
2 µg/mL: MIC ([6]; ATCC22019, C. parapsilosis ATCC 22019) | MIC ([6]; C. parapsilosis CAB 502638) | MIC ([7]; C. neoformans NR 41298) | MIC ([7]; C. neoformans NR 48770) | MIC ([8]; C. gattii NR 43209) | MIC ([8]; C. gattii NR 43210) | MIC ([14]; C. auris 383) | MIC ([14]; C. auris 390) | MIC ([15]; ATCC66032, C. glabrata ATCC 66032) | MIC ([16]; ATCC34135, C. krusei ATCC 34135) | MIC ([16]; C. krusei CAB 396420)
16 µg/mL: MIC ([5]; A. fumigatus NR 35303) | MIC ([17]; C. albicans NR-29448 (fluconazole-resistant))
> 64 µg/mL: MIC [4] | MIC [18]
64 µg/mL: MIC [9] | MIC [10]
8 µg/mL: MIC ([5]; A. fumigatus NR 35304) | MIC [13] | MIC ([14]; C. auris 381) | MIC ([14]; C. auris 382) | MIC ([14]; C. auris 386) | MIC ([14]; C. auris 387) | MIC ([14]; C. auris 389) | MIC ([17]; ATCC10231, C. albicans ATCC 10231)
≤ 64 µg/mL: concentration up to which non-toxic [1] | concentration up to which non-toxic [2]
4 µg/mL: MIC ([7]; C. neoformans NR 41300) | MIC ([14]; C. auris 384) | MIC ([14]; C. auris 385) | MIC ([14]; C. auris 388) | MIC ([17]; C. albicans SS5314 (wild-type))
